From patent publication US12473303B2, “4-[[(7-aminopyrazolo[1,5-a]pyrimidin-5-yl)amino methyl]piperidin-3-ol compounds and their therapeutic use” (CARRICK THERAPEUTICS LIMITED, priority 2019, dated 2025)
Where two headings read alike, the source gives them in different places.

How the values were obtained:
[1] = target: Human CDK12 wt/CycK (Homo sapiens (Human), UniProt Q9NYV4); assay: Radiometric protein kinase assay (33PanQinase Activity Assay), CDK12; format: biochemical; conditions: for CDK7/CDK12: ratio greater than 1 indicated selectivity for CDK12
Protocol: (§1) A radiometric protein kinase assay (^33PanQinase® Activity Assay) was used for measuring the kinase activity of the two protein kinases (CDK12/CDK7). All kinase assays were performed in 96-well FlashPlates™ from PerkinElmer (Boston, MA, USA) in a 50 μL reaction volume.
(§2) The reaction cocktail was pipetted in four steps in the following order: • 20 μL of assay buffer (standard buffer) • 5 μL of ATP solution (in H2O) • 5 μL of test compound (in 10% DMSO) • 10 μL of substrate/10 μL of enzyme solution (premixed)
(§3) The reaction mixture was incubated at 30° C. for 60 min and then stopped by the addition of 2% (v/v) H3PO4. Plates were aspirated and washed two times with 200 μL 0.9% (w/v) NaCl. Incorporation of ^33Pi was determined with a microplate scintillation count (Microbeta, Wallac).
(§4) The fitting method used was a least-squares fit.

[2] = test system: A673 cells; assay: Cellular potency in A673 cells; format: cell-based; conditions: for IC50: Homo sapiens, A673, Table 3, A673 cells; for Ratio of Biochemical Potency: Cellular Potency: Table 3, ratio >0.9 is an indicator of Cyclin K degradation
[3] = target: Human CDK7/CycH/MAT1 (Homo sapiens (Human), UniProt P50613); assay: Radiometric protein kinase assay (33PanQinase Activity Assay), CDK7; format: biochemical; conditions: Table 1; ATP 3 μM
Protocol: as §1, §2, §3, §4

[4] = Table 1, ATP 0.3 μM, read-out: CDK12 IC50
[5] = Table 3, CDK12 kinase activity, read-out: Biochemical Potency IC50

Chain of Human CDK7/CycH/MAT1 (P50613 whole entry): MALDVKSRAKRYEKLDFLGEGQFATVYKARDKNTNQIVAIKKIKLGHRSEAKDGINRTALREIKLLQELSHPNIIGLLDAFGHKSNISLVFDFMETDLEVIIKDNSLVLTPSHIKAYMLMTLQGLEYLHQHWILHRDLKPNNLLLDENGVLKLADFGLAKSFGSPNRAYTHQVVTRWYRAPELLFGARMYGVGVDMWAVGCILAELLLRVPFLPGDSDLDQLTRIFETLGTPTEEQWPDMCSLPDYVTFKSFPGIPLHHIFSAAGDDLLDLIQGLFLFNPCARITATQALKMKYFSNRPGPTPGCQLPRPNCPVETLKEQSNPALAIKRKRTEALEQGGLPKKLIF
Chain of Human CDK7/CycH/MAT1 (P51946 whole entry partner): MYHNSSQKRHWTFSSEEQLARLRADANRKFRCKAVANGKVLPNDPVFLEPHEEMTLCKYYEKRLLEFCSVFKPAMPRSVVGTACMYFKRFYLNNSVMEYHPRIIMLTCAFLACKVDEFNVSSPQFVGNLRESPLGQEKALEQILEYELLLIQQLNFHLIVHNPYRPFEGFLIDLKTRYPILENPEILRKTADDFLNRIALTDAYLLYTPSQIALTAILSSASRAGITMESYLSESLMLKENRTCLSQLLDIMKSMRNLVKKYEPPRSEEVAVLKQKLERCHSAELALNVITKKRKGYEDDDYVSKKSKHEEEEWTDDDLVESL
Chain of Human CDK7/CycH/MAT1 (P51948 whole entry partner): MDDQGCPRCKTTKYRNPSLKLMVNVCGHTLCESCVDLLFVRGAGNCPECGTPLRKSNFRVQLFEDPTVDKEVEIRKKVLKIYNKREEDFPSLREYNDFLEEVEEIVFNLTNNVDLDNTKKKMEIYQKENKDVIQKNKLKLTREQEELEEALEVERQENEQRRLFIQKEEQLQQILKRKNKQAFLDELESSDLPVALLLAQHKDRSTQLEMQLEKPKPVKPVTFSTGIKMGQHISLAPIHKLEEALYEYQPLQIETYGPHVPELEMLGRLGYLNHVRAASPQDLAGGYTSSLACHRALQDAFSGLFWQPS
Chain of Human CDK12 wt/CycK (Q9NYV4 whole entry): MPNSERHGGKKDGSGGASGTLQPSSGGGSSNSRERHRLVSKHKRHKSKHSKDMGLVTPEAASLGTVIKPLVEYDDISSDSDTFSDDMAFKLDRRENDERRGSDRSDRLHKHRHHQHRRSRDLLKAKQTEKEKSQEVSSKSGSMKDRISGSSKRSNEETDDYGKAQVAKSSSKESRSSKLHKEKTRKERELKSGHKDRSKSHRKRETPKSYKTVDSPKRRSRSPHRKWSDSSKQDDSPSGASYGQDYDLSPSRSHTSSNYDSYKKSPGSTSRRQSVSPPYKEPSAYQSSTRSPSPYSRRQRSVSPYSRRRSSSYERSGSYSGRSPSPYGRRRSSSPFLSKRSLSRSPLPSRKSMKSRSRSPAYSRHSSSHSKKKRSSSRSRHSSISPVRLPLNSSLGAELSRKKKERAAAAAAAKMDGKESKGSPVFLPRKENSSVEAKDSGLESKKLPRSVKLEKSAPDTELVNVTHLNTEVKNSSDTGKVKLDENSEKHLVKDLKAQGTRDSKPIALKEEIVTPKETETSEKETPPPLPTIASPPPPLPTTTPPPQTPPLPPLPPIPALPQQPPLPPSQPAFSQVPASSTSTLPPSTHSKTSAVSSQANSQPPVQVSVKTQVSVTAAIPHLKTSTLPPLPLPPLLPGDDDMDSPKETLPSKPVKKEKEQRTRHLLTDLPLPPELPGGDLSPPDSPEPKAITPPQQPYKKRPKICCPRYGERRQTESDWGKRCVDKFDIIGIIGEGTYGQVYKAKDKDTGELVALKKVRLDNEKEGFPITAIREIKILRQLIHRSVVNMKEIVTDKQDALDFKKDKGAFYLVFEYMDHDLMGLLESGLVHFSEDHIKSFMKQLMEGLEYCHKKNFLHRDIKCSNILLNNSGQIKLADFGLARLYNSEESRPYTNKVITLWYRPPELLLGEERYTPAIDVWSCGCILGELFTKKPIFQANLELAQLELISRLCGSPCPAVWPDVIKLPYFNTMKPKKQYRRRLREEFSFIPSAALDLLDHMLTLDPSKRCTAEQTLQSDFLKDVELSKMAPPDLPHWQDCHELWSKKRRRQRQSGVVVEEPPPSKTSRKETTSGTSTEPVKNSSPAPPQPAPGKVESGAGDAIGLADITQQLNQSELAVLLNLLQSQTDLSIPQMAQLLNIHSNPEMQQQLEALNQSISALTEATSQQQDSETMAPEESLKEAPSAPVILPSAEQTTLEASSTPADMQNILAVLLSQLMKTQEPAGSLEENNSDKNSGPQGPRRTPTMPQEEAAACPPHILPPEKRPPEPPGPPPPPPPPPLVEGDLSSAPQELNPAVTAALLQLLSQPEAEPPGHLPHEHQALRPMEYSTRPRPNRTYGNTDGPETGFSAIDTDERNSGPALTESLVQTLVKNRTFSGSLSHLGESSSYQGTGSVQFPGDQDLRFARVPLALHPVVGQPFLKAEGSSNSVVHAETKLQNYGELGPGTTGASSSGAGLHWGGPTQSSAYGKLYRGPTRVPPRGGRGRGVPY
Chain of Human CDK12 wt/CycK (O75909 whole entry partner): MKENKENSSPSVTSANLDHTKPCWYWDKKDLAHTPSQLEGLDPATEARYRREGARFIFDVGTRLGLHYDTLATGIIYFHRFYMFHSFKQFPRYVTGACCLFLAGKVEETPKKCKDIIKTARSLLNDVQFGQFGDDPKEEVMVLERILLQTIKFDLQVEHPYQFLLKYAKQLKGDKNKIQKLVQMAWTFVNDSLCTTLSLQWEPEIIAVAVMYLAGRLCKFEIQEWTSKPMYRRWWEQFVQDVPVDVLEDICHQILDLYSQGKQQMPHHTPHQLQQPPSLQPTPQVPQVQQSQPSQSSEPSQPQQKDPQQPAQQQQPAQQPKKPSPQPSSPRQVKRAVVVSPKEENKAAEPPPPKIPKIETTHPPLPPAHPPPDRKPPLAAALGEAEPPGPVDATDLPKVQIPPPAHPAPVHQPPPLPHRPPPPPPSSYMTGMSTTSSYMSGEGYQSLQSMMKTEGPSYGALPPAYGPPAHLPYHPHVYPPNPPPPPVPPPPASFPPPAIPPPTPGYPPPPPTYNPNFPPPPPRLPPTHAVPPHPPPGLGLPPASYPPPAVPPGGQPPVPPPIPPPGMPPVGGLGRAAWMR

Structure (SMILES)	IC50 [1, 4]	CDK7/CDK12 ([1]; Table 1)	IC50 [1, 5]	IC50 [2]	Ratio of Biochemical Potency: Cellular Potency [2]	IC50 [3]
O[C@H]1CNCC[C@@H]1CNc1cc(NCc2cn3nc(C4CC4)ccc3n2)n2ncc(C3CC3)c2n1 [H-APPAMP-028, (3R,4R)-4-(((3-cyclopropyl-7-(((6-cyclopropylimidazo[1,2-b]pyridazin-2-yl)methyl)amino)pyrazolo[1,5-a]pyrimidin-5-yl)amino)methyl)piperidin-3-ol]	37 nM	1.8	37 nM	13.1 nM	2.8	68 nM
Cc1cccc2nc(CNc3cc(NC[C@H]4CCNC[C@@H]4O)nc4c(C(C)C)cnn34)cn12 [H-APPAMP-010, (3R,4R)-4-(((3-isopropyl-7-(((5-methylimidazo[1,2-a]pyridin-2-yl)methyl)amino)pyrazolo[1,5-a]pyrimidin-5-yl)amino)methyl)piperidin-3-ol]	40 nM	6.0	40 nM	4.3 nM	9.3	238 nM
CC(C)Oc1cccc2nc(CNc3cc(NC[C@H]4CCNC[C@@H]4O)nc4c(C5CC5)cnn34)cn12 [H-APPAMP-041, (3R,4R)-4-(((3-cyclopropyl-7-(((5-isopropoxyimidazo[1,2-a]pyridin-2-yl)methyl)amino)pyrazolo[1,5-a]pyrimidin-5-yl)amino)methyl)piperidin-3-ol]	46 nM	14.1	46 nM	9.8 nM	4.7	650 nM
Cc1cccn2cc(CNc3cc(NC[C@H]4CCNC[C@@H]4O)nc4c(C5CCC5)cnn34)nc12 [H-APPAMP-029, (3R,4R)-4-(((3-cyclobutyl-7-(((8-methylimidazo[1,2-a]pyridin-2-yl)methyl)amino)pyrazolo[1,5-a]pyrimidin-5-yl)amino)methyl)piperidin-3-ol]	65 nM	3.0	65 nM	18.5 nM	3.5	196 nM
CC(C)c1cnn2c(NCc3cn4cccnc4n3)cc(NC[C@H]3CCNC[C@@H]3O)nc12 [H-APPAMP-002, (3R,4R)-4-(((7-((imidazo[1,2-a]pyrimidin-2-ylmethyl)amino)-3-isopropylpyrazolo[1,5-a]pyrimidin-5-yl)amino)methyl)piperidin-3-ol]	71.5 nM	9.85	71 nM	716 nM	0.1	704 nM
Cc1cccc2ncc(CNc3cc(NC[C@H]4CCNC[C@@H]4O)nc4c(C(C)C)cnn34)n12 [H-APPAMP-001, (3R,4R)-4-(((3-isopropyl-7-(((5-methylimidazo[1,2-a]pyridin-3-yl)methyl)amino)pyrazolo[1,5-a]pyrimidin-5-yl)amino)methyl)piperidin-3-ol]	38 nM	11.5	38 nM	123 nM	0.3	436 nM
CC(C)c1cnn2c(NCc3cc4ccccc4o3)cc(NC[C@H]3CCNC[C@@H]3O)nc12 [H-APPAMP-020, (3R,4R)-4-(((7-((benzofuran-2-ylmethyl)amino)-3-isopropylpyrazolo[1,5-a]pyrimidin-5-yl)amino)methyl)piperidin-3-ol]	540 nM	0.2	540 nM	116 nM	4.7	82 nM
CC(C)c1cnn2c(NCc3cn4ccccc4n3)cc(NC[C@H]3CCNC[C@@H]3O)nc12 [H-APPAMP-003, (3R,4R)-4-(((7-((imidazo[1,2-a]pyridin-2-ylmethyl)amino)-3-isopropylpyrazolo[1,5-a]pyrimidin-5-yl)amino)methyl)piperidin-3-ol]	50.2 nM	8.19	50 nM	8 nM	6.2	411 nM
CCc1cnn2c(NCc3cn4cc(C5CC5)cc(C(F)(F)F)c4n3)cc(NC[C@H]3CCNC[C@@H]3O)nc12 [H-APPAMP-038, (3R,4R)-4-(((7-(((6-cyclopropyl-8-(trifluoromethyl)imidazo[1,2-a]pyridin-2-yl)methyl)amino)-3-ethylpyrazolo[1,5-a]pyrimidin-5-yl)amino)methyl)piperidin-3-ol]	100 nM	7.6	100 nM	4.6 nM	22	762 nM
O[C@H]1CNCC[C@@H]1CNc1cc(NCc2cn3c(C(F)(F)F)cccc3n2)n2ncc(C3CC3)c2n1 [H-APPAMP-037, (3R,4R)-4-(((3-cyclopropyl-7-(((5-(trifluoromethyl)imidazo[1,2-a]pyridin-2-yl)methyl)amino)pyrazolo[1,5-a]pyrimidin-5-yl)amino)methyl)piperidin-3-ol]	208 nM	3.1	208 nM	18.1 nM	11	649 nM
Cn1c(CNc2cc(NC[C@H]3CCNC[C@@H]3O)nc3c(C4CC4)cnn23)nc2cc(F)c(F)cc21 [H-APPAMP-036, (3R,4R)-4-(((3-cyclopropyl-7-(((5,6-difluoro-1-methyl-1H-benzo[d]imidazol-2-yl)methyl)amino)pyrazolo[1,5-a]pyrimidin-5-yl)amino)methyl)piperidin-3-ol]	287 nM	4.0	287 nM	10.4 nM	28	1150 nM
Cc1cc(C(F)(F)F)cc2nc(CNc3cc(NC[C@H]4CCNC[C@@H]4O)nc4c(C5CC5)cnn34)cn12 [H-APPAMP-039, (3R,4R)-4-(((3-cyclopropyl-7-(((5-methyl-7-(trifluoromethyl)imidazo[1,2-a]pyridin-2-yl)methyl)amino)pyrazolo[1,5-a]pyrimidin-5-yl)amino)methyl)piperidin-3-ol]	48 nM	38.1	48 nM	4 nM	12	1830 nM
CC(C)c1cnn2c(NCc3nc4ccccn4c3C3CC3)cc(NC[C@H]3CCNC[C@@H]3O)nc12 [H-APPAMP-024, (3R,4R)-4-(((7-(((3-cyclopropylimidazo[1,2-a]pyridin-2-yl)methyl)amino)-3-isopropylpyrazolo[1,5-a]pyrimidin-5-yl)amino)methyl)piperidin-3-ol]	93 nM	3.0	93 nM	19.8 nM	4.7	283 nM
CC(C)c1cnn2c(Nc3csc4ccccc34)cc(NC[C@H]3CCNC[C@@H]3O)nc12 [REF-003, reference compound]	597 nM	–	–	–	–	11 nM
CC(C)c1cnn2c(NCc3ccccc3)cc(NC[C@H]3CCNC[C@@H]3O)nc12 [REF-001, reference compound]	3200 nM	–	–	–	–	–
CC(C)c1cnn2c(NCc3ccncc3)cc(NC[C@H]3CCNC[C@@H]3O)nc12 [REF-002, reference compound]	253 nM	–	–	–	–	125 nM
